Target: T1, PNPLA1 (Homo sapiens, UniProt Q8N8W4)
T1 construct: expressed in transfected cells; host or cells: HEK293T cells
Assay: PNPLA1-dependent ω-O-acylceramide formation in HEK293T cells
Format: cell-based
Settings: NG-497 40 µM, Orlistat 40 µM
Description: Fig. S3: Investigation of off-target effects of NG-497 on structurally and functionally related lipid hydrolases. (a) PNPLA1-dependent formation of acylceramides was monitored in a cell-based assay in HEK293T cells. Experiments were performed in the presence or absence of NG-497 (40 µM) and the non-selective lipase inhibitor Orlistat (40 µM). Orlistat, but not NG-497, inhibited PNPLA1/CGI-58-dependent ω-O-acylceramide formation. (b-h) Enzymes were overexpressed in Expi293 cells and cell lysates were used as source of enzymatic activity. […] Experiments were performed in the presence or absence of NG-497 (100 µM) and the formation of reaction products was monitored. […]
Data were calculated relative to the basal activity detected in LacZ-transfected controls. […]
LPL activity was inhibited using an anti-LPL antibody. All data are presented as mean ± S.D. Statistical significance was determined via ANOVA followed by Bonferroni post hoc test ( ***, p < 0.001). […]
Released free fatty acids were quantified via NEFA C kit (Fujifilm Wako Chemicals, Neuss, Germany) and release of p-nitrophenol was measured at 405 nm. […] Cellular ω-O-acylceramide formation was monitored using [1-14C]linoleic acid as tracer. […] The activity of purified human pancreatic lipase (MilliporeSigma #SRE0028) was determined as previously described7 in the presence or absence of NG-497 (100µM) or Orlistat (20 µM). […]

T1 sequence (Q8N8W4 whole entry): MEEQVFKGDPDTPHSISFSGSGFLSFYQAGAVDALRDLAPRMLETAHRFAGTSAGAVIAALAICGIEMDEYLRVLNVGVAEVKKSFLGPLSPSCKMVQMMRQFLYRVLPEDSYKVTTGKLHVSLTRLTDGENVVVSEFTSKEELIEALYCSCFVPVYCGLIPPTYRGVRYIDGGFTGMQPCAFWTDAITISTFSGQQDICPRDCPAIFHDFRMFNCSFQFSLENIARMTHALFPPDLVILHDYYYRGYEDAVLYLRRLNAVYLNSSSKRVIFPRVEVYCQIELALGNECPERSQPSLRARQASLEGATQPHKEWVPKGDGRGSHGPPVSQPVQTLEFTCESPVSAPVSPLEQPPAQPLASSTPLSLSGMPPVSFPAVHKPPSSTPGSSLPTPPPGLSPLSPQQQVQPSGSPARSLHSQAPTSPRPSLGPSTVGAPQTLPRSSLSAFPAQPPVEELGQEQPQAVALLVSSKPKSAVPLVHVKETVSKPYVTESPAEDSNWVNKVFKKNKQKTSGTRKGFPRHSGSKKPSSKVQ

CCOc1ccc(-c2cc(OC)cc(C(=O)OC(C)C)n2)cc1 [NG-497]
PNPLA1/CGI-58-dependent ω-O-acylceramide formation: not affected
